Assay results: ChEMBL document CHEMBL3045446, “In vitro antimicrobial and antimycobacterial activity of some chalcones and their derivatives” (2013)
Values after ≈ are worked out from the molar mass of the structure shown.

Legend:
Format in all cases: functional
[1] = test system: Aspergillus fumigatus; assay: Antimicrobial activity against Aspergillus fumigatus MTCC 343 assessed as growth inhibition after 48 hr by agar streak dilution method; conditions: MTCC 343, 48 h
[2] = test system: Salmonella typhi; assay: Antimicrobial activity against Salmonella enterica subsp. enterica serovar Typhi MTCC 733 assessed as growth inhibition after 24 hr by agar streak dilution method; conditions: MTCC 733, 24 h
[3] = test system: Mycobacterium tuberculosis; assay: Antituberculosis activity against Mycobacterium tuberculosis H37Rv assessed as growth inhibition after 12 to 28 days by L-J MIC method; conditions: for MIC: Mycobacterium tuberculosis, H37Rv
[4] = test system: Proteus vulgaris; assay: Antimicrobial activity against Proteus vulgaris MTCC 1771 assessed as growth inhibition after 24 hr by agar streak dilution method; conditions: MTCC 1771, 24 h
[5] = test system: Aspergillus niger; assay: Antimicrobial activity against Aspergillus niger MTCC 282 assessed as growth inhibition after 48 hr by agar streak dilution method; conditions: MTCC 282, 48 h
[6] = test system: Bacillus cereus; assay: Antimicrobial activity against Bacillus cereus MTCC 430 assessed as growth inhibition after 24 hr by agar streak dilution method; conditions: MTCC 430, 24 h
[7] = test system: Escherichia coli; assay: Antimicrobial activity against Escherichia coli MTCC 739 assessed as diameter of growth inhibition zone after 24 hr
[8] = test system: Pseudomonas aeruginosa; assay: Antimicrobial activity against Pseudomonas aeruginosa MTCC 741 assessed as diameter of growth inhibition zone after 24 hr
[9] = test system: Aspergillus clavatus; assay: Antimicrobial activity against Aspergillus clavatus MTCC 1323 assessed as growth inhibition after 48 hr by agar streak dilution method; conditions: MTCC 1323, 48 h
[10] = test system: Staphylococcus aureus; assay: Antimicrobial activity against Staphylococcus aureus MTCC 96 assessed as growth inhibition after 24 hr by agar streak dilution method; conditions: MTCC 96, 24 h
[11] = test system: Bacillus cereus; assay: Antimicrobial activity against Bacillus cereus MTCC 430 assessed as diameter of growth inhibition zone after 24 hr
[12] = test system: Candida albicans; assay: Antimicrobial activity against Candida albicans MTCC 183 assessed as diameter of growth inhibition zone after 48 hr
[13] = test system: Aspergillus clavatus; assay: Antimicrobial activity against Aspergillus clavatus MTCC 1323 assessed as diameter of growth inhibition zone after 48 hr
[14] = test system: Shigella flexneri; assay: Antimicrobial activity against Shigella flexneri MTCC1457 assessed as diameter of growth inhibition zone after 24 hr
[15] = test system: Proteus vulgaris; assay: Antimicrobial activity against Proteus vulgaris MTCC 1771 assessed as diameter of growth inhibition zone after 24 hr
[16] = test system: Escherichia coli; assay: Antimicrobial activity against Escherichia coli MTCC 739 assessed as growth inhibition after 24 hr by agar streak dilution method; conditions: MTCC 739, 24 h
[17] = test system: Aspergillus fumigatus; assay: Antimicrobial activity against Aspergillus fumigatus MTCC 343 assessed as diameter of growth inhibition zone after 48 hr
[18] = test system: Klebsiella pneumoniae; assay: Antimicrobial activity against Klebsiella pneumoniae MTCC 109 assessed as diameter of growth inhibition zone after 24 hr
[19] = test system: Aspergillus niger; assay: Antimicrobial activity against Aspergillus niger MTCC 282 assessed as diameter of growth inhibition zone after 48 hr
[20] = test system: Pseudomonas aeruginosa; assay: Antimicrobial activity against Pseudomonas aeruginosa MTCC 741 assessed as growth inhibition after 24 hr by agar streak dilution method; conditions: MTCC 741, 24 h
[21] = test system: Candida albicans; assay: Antimicrobial activity against Candida albicans MTCC 183 assessed as growth inhibition after 48 hr by agar streak dilution method; conditions: MTCC 183, 48 h
[22] = test system: Shigella flexneri; assay: Antimicrobial activity against Shigella flexneri MTCC1457 assessed as growth inhibition after 24 hr by agar streak dilution method; conditions: MTCC1457, 24 h
[23] = test system: Salmonella typhi; assay: Antimicrobial activity against Salmonella enterica subsp. enterica serovar Typhi MTCC 733 assessed as diameter of growth inhibition zone after 24 hr
[24] = test system: Klebsiella pneumoniae; assay: Antimicrobial activity against Klebsiella pneumoniae MTCC 109 assessed as growth inhibition after 24 hr by agar streak dilution method; conditions: MTCC 109, 24 h
[25] = test system: Staphylococcus aureus; assay: Antimicrobial activity against Staphylococcus aureus MTCC 96 assessed as diameter of growth inhibition zone after 24 hr

Nc1nc(-c2ccc(Nc3cc(=O)oc4ccccc34)cc2)cc(-c2ccc([N+](=O)[O-])cc2)n1
MIC [1]: 100 mg/L (≈ 222 µM) | MIC [2]: 25 mg/L (≈ 55.4 µM) | growth inhibition (GI) [3]: 96% | MIC [3]: 500 mg/L (≈ 1110 µM) | MIC [4]: 100 mg/L (≈ 222 µM) | MIC [5]: 50 mg/L (≈ 111 µM) | MIC [6]: 100 mg/L (≈ 222 µM) | diameter of the inhibition zone (DIZ) [7]: 17 mm | diameter of the inhibition zone (DIZ) [8]: 16 mm | MIC [9]: 25 mg/L (≈ 55.4 µM) | MIC [10]: 100 mg/L (≈ 222 µM) | diameter of the inhibition zone (DIZ) [11]: 16 mm | diameter of the inhibition zone (DIZ) [12]: 19 mm | diameter of the inhibition zone (DIZ) [13]: 20 mm | diameter of the inhibition zone (DIZ) [14]: 16 mm | diameter of the inhibition zone (DIZ) [15]: 14 mm | MIC [16]: 100 mg/L (≈ 222 µM) | diameter of the inhibition zone (DIZ) [17]: 16 mm | diameter of the inhibition zone (DIZ) [18]: 18 mm | diameter of the inhibition zone (DIZ) [19]: 17 mm | MIC [20]: 100 mg/L (≈ 222 µM) | MIC [21]: 50 mg/L (≈ 111 µM) | MIC [22]: 100 mg/L (≈ 222 µM) | diameter of the inhibition zone (DIZ) [23]: 21 mm | MIC [24]: 50 mg/L (≈ 111 µM) | diameter of the inhibition zone (DIZ) [25]: 15 mm

CC(=O)N1N=C(c2ccc(Nc3cc(=O)oc4ccccc34)cc2)CC1c1ccc(F)cc1 (centres undefined)
MIC [1]: 25 mg/L (≈ 56.6 µM) | MIC [2]: 50 mg/L (≈ 113 µM) | growth inhibition (GI) [3]: 98% | MIC [3]: 100 mg/L (≈ 227 µM) | MIC [4]: 25 mg/L (≈ 56.6 µM) | MIC [5]: 25 mg/L (≈ 56.6 µM) | MIC [6]: 12.5 mg/L (≈ 28.3 µM) | diameter of the inhibition zone (DIZ) [7]: 20 mm | diameter of the inhibition zone (DIZ) [8]: 17 mm | MIC [9]: 50 mg/L (≈ 113 µM) | MIC [10]: 12.5 mg/L (≈ 28.3 µM) | diameter of the inhibition zone (DIZ) [11]: 22 mm | diameter of the inhibition zone (DIZ) [12]: 16 mm | diameter of the inhibition zone (DIZ) [13]: 20 mm | diameter of the inhibition zone (DIZ) [14]: 20 mm | diameter of the inhibition zone (DIZ) [15]: 21 mm | MIC [16]: 50 mg/L (≈ 113 µM) | diameter of the inhibition zone (DIZ) [17]: 22 mm | diameter of the inhibition zone (DIZ) [18]: 23 mm | diameter of the inhibition zone (DIZ) [19]: 20 mm | MIC [20]: 50 mg/L (≈ 113 µM) | MIC [21]: 50 mg/L (≈ 113 µM) | MIC [22]: 25 mg/L (≈ 56.6 µM) | diameter of the inhibition zone (DIZ) [23]: 18 mm | MIC [24]: 12.5 mg/L (≈ 28.3 µM) | diameter of the inhibition zone (DIZ) [25]: 23 mm

Nc1nc(-c2ccc(Nc3cc(=O)oc4ccccc34)cc2)cc(-c2ccccc2Br)n1
MIC [1]: 50 mg/L (≈ 103 µM) | MIC [2]: 50 mg/L (≈ 103 µM) | growth inhibition (GI) [3]: 98% | MIC [3]: 100 mg/L (≈ 206 µM) | MIC [4]: 100 mg/L (≈ 206 µM) | MIC [5]: 50 mg/L (≈ 103 µM) | MIC [6]: 100 mg/L (≈ 206 µM) | diameter of the inhibition zone (DIZ) [7]: 16 mm | diameter of the inhibition zone (DIZ) [8]: 15 mm | MIC [9]: 50 mg/L (≈ 103 µM) | MIC [10]: 100 mg/L (≈ 206 µM) | diameter of the inhibition zone (DIZ) [11]: 16 mm | diameter of the inhibition zone (DIZ) [12]: 23 mm | diameter of the inhibition zone (DIZ) [13]: 17 mm | diameter of the inhibition zone (DIZ) [14]: 19 mm | diameter of the inhibition zone (DIZ) [15]: 17 mm | MIC [16]: 100 mg/L (≈ 206 µM) | diameter of the inhibition zone (DIZ) [17]: 19 mm | diameter of the inhibition zone (DIZ) [18]: 18 mm | diameter of the inhibition zone (DIZ) [19]: 20 mm | MIC [20]: 100 mg/L (≈ 206 µM) | MIC [21]: 25 mg/L (≈ 51.5 µM) | MIC [22]: 50 mg/L (≈ 103 µM) | diameter of the inhibition zone (DIZ) [23]: 20 mm | MIC [24]: 50 mg/L (≈ 103 µM) | diameter of the inhibition zone (DIZ) [25]: 17 mm

O=C(/C=C/c1ccc(Cl)cc1)c1ccc(Nc2cc(=O)oc3ccccc23)cc1
MIC [1]: 100 mg/L (≈ 249 µM) | MIC [2]: 100 mg/L (≈ 249 µM) | growth inhibition (GI) [3]: 95% | MIC [3]: 1000 mg/L (≈ 2490 µM) | MIC [4]: 100 mg/L (≈ 249 µM) | MIC [5]: 100 mg/L (≈ 249 µM) | MIC [6]: 100 mg/L (≈ 249 µM) | diameter of the inhibition zone (DIZ) [7]: 12 mm | diameter of the inhibition zone (DIZ) [8]: 10 mm | MIC [9]: 100 mg/L (≈ 249 µM) | MIC [10]: 50 mg/L (≈ 124 µM) | diameter of the inhibition zone (DIZ) [11]: 14 mm | diameter of the inhibition zone (DIZ) [12]: 15 mm | diameter of the inhibition zone (DIZ) [13]: 14 mm | diameter of the inhibition zone (DIZ) [14]: 18 mm | diameter of the inhibition zone (DIZ) [15]: 17 mm | MIC [16]: 100 mg/L (≈ 249 µM) | diameter of the inhibition zone (DIZ) [17]: 14 mm | diameter of the inhibition zone (DIZ) [18]: 20 mm | diameter of the inhibition zone (DIZ) [19]: 12 mm | MIC [20]: 100 mg/L (≈ 249 µM) | MIC [21]: 100 mg/L (≈ 249 µM) | MIC [22]: 50 mg/L (≈ 124 µM) | diameter of the inhibition zone (DIZ) [23]: 15 mm | MIC [24]: 50 mg/L (≈ 124 µM) | diameter of the inhibition zone (DIZ) [25]: 18 mm
